Data as given in patent US20110071171A1, “2H- PYRIMIDO [2, 1-B] QUINAZOLIN-2-ONE DERIVATIVES AND THEIR USE AS PLATELET ANTI-AGGREGATIVE AGENTS” (Shire LLC, priority 2008, published 2011).

Experiments:
[1] = molecular target: human phosphodiesterase III (PDE III); settings: cited from earlier work
[2] = tested on: human phosphodiesterase III (PDE III); assay: PDE III inhibition; type: biochemical; settings: more potent than anagrelide
Description: In early volunteer trials, the most frequently reported adverse effects AEs other than headache were palpitations, postural dizziness and nausea. During patient studies, the most frequently reported drug-related AEs were headache, palpitations, oedema/fluid retention, nausea/vomiting, diarrhea, dizziness and abdominal pain. These effects are all likely to arise from the secondary, cardiovascular pharmacology associated with anagrelide resulting from its inhibitory effects on human phosphodiesterase III (PDE III). […] Inhibition of myocardial PDE III leads to positive inotropy (increasing of the force of contractions of the heart), increased chronotropy (increase in heart rate), and peripheral vasodilatation. Such cardiovascular manifestations of this inhibition are typically seen with the classical positive inotropes, milrinone and enoximone, and exploited in the short-term acute treatment of congestive heart failure. However, in the treatment of a so-called silent disease (i.e., asymptomatic) such as ET, the cardiovascular side-effects of palpitations and tachycardia associated with anagrelide limit its utility and a significant proportion of patients—reportedly between 25 and 50%—fail to tolerate the drug during long term treatment.
The PDE III inhibitory properties of anagrelide are quite distinct from its platelet lowering anti-megakaryocytic effects. […]

[3] = Pharmacokinetics in humans; type: in vivo, human; settings: after anagrelide treatment
Description: The PDE III inhibitory properties of anagrelide are quite distinct from its platelet lowering anti-megakaryocytic effects. Indeed studies have shown no correlation between potency as a PDE III inhibitor and anti-megakaryocytic effects for anagrelide and its principal pharmacologically active metabolite, 3-hydroxyanagrelide (3-OH anagrelide or 3-HA, formerly known as SPD604 or BCH24426). […] Anagrelide's active metabolite, 3-HA, is present in vivo in amounts greatly exceeding those of the parent drug with typical exposures being 2-3 fold greater. Thus by implication 3-OH anagrelide is likely to be a major contributor to the pharmacological actions of the drug.
The metabolism of anagrelide generally proceeds extremely rapidly, resulting in a less than ideal pharmacokinetic profile of the drug. […] This, combined with the side-effects profile, can lead to poor patient compliance. Furthermore, anagrelide undergoes a large first pass effect (>50%) leading to considerable intersubject variation in achieved exposures and, therefore, potentially variable drug response. Also, exposure to the pharmacologically active metabolite varies dramatically between patients since its formation is dependent on CYP1A, an enzyme whose expression is highly dependent on exposure to inducing agents such as cigarette smoke. […]

[4] = tested on: TPO-induced megakaryocytopoiesis; settings: cited from earlier work
[5] = cited from earlier work
[6] = tested on: erythroid or myelomonocytic differentiation; settings: stimulated by erythropoietin or granulocyte-macrophage colony-stimulating factor; cited from earlier work
platelet count = settings: patients with thrombocythemia secondary to a myeloproliferative disorder; cited from earlier work

Compound | IC50 [1] [nM] | potency as PDE III inhibitor relative to anagrelide [2] | in vivo exposure relative to parent drug [3] | potency in inhibition of megakaryocytopoiesis relative to anagrelide [4] | half-life ([5]; typical) [h] | IC50 ([4]; in vitro, human megakaryocytopoiesis, read-out: estimated IC50, inhibition of TPO-induced megakaryocytopoiesis) [nM] | effect on erythroid or myelomonocytic differentiation [6] | time to complete response (platelet count ≦600×10^9/L) (platelet count) [weeks] | first pass effect ([5]; in vivo) [%]
Cc1[nH]c(=O)c(C#N)cc1-c1ccncc1 [milrinone] | 170 to 350 | – | – | – | – | – | – | – | –
O=C1NC2=Nc3ccc(Cl)c(Cl)c3CN2C1O (stereo not shown) [3-hydroxyanagrelide] | – | over 40 fold | 2-3 fold | no more potent than the parent drug | 2.5 | – | – | – | –
O=C1CN2Cc3c(ccc(Cl)c3Cl)N=C2N1 [Anagrelide, 6,7-dichloro-1,5-dihydroimidazo[2,1-b]-quinazolin-2(3H)-one] | ~29 | – | – | – | – | ~26 | does not affect | 4 to 12 | > 50
